{"source": "patent US20040097408A1", "about": "“Compounds regulating cell proliferation and differentiation” (priority 2001, published 2004)", "key": {"SH1.1": {"test_system": "SH1.1", "experiment": "cell cycle phases by BrdU incorporation / FACS", "assay_type": "cell-based, mouse", "conditions": "F16 3 μM, 30 hr", "method": "(§1) The percentage of cells in the different phases of the cell cycle was assessed by measuring BrdU incorporation into the DNA of the cells. BrdU incorporation into DNA of untreated or F16 treated (3 μM/30-36 hr) EpH-EV and EpH-A6 cells was assessed by FACS as follows. After F16 or mock treatment, the cells were pulsed with BrdU (20 μM) for 1 hour and then fixed in 70% ethanol at −20° C. overnight. Next morning cells were washed twice with 1×PBS and the DNA was denatured by incubation of the cells in 2N HCl/0.5% Triton X-100. The cells were then washed twice in 0.1M Na2B2O7, and once in PBS. The cells were resuspended in PBS, incubated with 20 μL of anti-BrdU/FITC(Becton Dickinson) for 1 hour and subsequently washed with 1×PBS and resuspended in PBS. RNA was digested with RNaseA (1 μL of 10 mg/mL stock) at 37° C. for 30 minutes. Finally, the cells were diluted with 1 mL of 5 μg/mL propidium iodide/PBS and incubated on ice for 15 minutes. The labeled cells were analyzed using the FACSCalibur (Becton Dickinson).\n(§2) The effect of F16 (3 μM) on BrdU incorporation into DNA of various Neu-induced, Ras-induced and Myc-induced tumor cells lines was examined using the same technique. The results, which are shown in Table 3, indicate that, except for 16MB9a, a myc tumor cell line that is not affected by F16, the other cell lines, all of which are sensitive to F16 show, as expected, a decrease in the percentage of cells in the S phase and an increase in the percentage of cells in G1 after 30 hr of incubation in medium containing F16 (3 μM). In some cases, an increase in the amount of cells in G2 phase was observed. This may reflect the heterogeneity of the tumor cells, some of which may have acquired defects in various cell cycle regulators as secondary events."}, "AC816": {"test_system": "AC816", "experiment": "cell cycle phases by BrdU incorporation / FACS", "assay_type": "cell-based, mouse", "conditions": "F16 3 μM, 30 hr", "method": "as §1, §2"}, "[1]": {"test_system": "Myc (16MB9a, a myc tumor cell line)", "experiment": "cell cycle phases by BrdU incorporation / FACS", "assay_type": "cell-based, mouse", "conditions": "Myc tumor cell line (16MB9a); F16 3 μM, 30 hr", "method": "as §1, §2"}, "n-Neu": {"test_system": "n-Neu", "experiment": "cell cycle phases by BrdU incorporation / FACS", "assay_type": "cell-based, mouse", "conditions": "F16 3 μM, 30 hr", "method": "as §1, §2"}, "NF980": {"test_system": "NF980", "experiment": "cell cycle phases by BrdU incorporation / FACS", "assay_type": "cell-based, mouse", "conditions": "F16 3 μM, 30 hr", "method": "as §1, §2"}, "NAF": {"test_system": "NAF", "experiment": "cell cycle phases by BrdU incorporation / FACS", "assay_type": "cell-based, mouse", "conditions": "F16 3 μM, 30 hr", "method": "as §1, §2"}, "EpH4-A6 cells": {"test_system": "EpH4-A6 cells", "experiment": "ATP levels (ATP Bioluminescence Assay)", "assay_type": "cell-based, mouse", "conditions": "3 μM F16, 24 hr, FIG. 10", "method": "One of the major roles of mitochondria is to supply energy to the cell. To assess alterations in mitochondrial function, ATP levels were determined in F16-treated cells by the luciferase-catalyzed ATP-dependent bioluminescent oxidation of luciferin using the ATP Bioluminescence Assay Kit (Roche). EpH4-EV and EpH4-A6 cells were grown in the absence or in the presence of 3 μM F16 for 15 hr and 24 hr. As a control A6 were treated with 5 μM FCCP (Sigma). Cells were then harvested, counted and equivalent numbers used for each determination, according to manufacturer's procedure. Each determination was done in triplicate, and the entire experiment was performed twice."}, "[2]": {"test_system": "Neu, PKB/Akt and MAP kinase in EpH4-A6 cells", "experiment": "Western blot of Neu-dependent signaling", "assay_type": "cell-based, mouse", "conditions": "3 μM F16, FIG. 12", "method": "In parallel to the characterization of the effect of F16 on mitochondria homeostasis the effect of F16 on cell signaling was investigated. Control and Neu-overexpressing EpH4-A6 cells were left untreated or treated with 3 μM F16 for 24 and 48 hr. Whole cell lysates were prepared as described above. Samples were immnoblotted with antibodies against Neu, PKB, MAPK, as well as antibodies that react with the phosphorylated forms of the proteins, as described above. Samples were probed with anti-β-actin as loading control, also as described above."}, "BT474": {"test_system": "BT474", "experiment": "cell count proliferation assay", "assay_type": "cell-based", "parameters": "key: +: A positive scoring in these Tables represent cells in which a 2-5 and a 10-40 fold reduction in the total number of cells relative to the control untreated cells was observed after 3 and 7 days of culture with F16, respectively", "conditions": "BT474, human breast; F16 3 μM, cells counted after 3 and 7 days"}, "[3]": {"test_system": "isolated mouse liver mitochondria", "experiment": "mitochondrial membrane potential by F16 fluorescence", "assay_type": "biochemical", "conditions": "1 μM and 50 μM F16", "method": "Mitochondria were isolated from liver of Balb/c7 mice by standard differential centrifugation, and resuspended in isolation buffer (0.2 M sucrose, 10 mM Tris-MOPS pH 7.4, 0.1 mM EGTA-Tris, 0.1% delipidated BSA) (Costantini et al. (1995) Toxicology (99) 77-88). Protein concentration was determined by Bradford assay. For swelling determination, changes in side scatter at 545±2.5 nm of a 0.5 mg/ml suspension of mitochondria in experimental buffer (125 mM KCl, 10 mM Tris-MOPS pH 7.4, 1 mM Pi, 5 mM glutamate, 2.5 mM malate, 10 μM EGTA-Tris, pH 7.4) were monitored by using LS-50B spectrofluorimeter. To monitor changes in mitochondrial membrane potential, the intrinsic potentiometric properties of F16 were used. Mitochondria (0.5 mg/ml) were incubated in experimental buffer with the indicated concentrations of F16 and changes in F16 fluorescence intensity were measured, using a LS-50B spectrofluorimeter at 25° C., with excitation and emission wavelengths set at 415±2.5 nm and 520±5 nm, respectively. All reactions were performed at 25° C. and the instrument was equipped with magnetic stirring.\nThe fluorescent properties of F16 were used for this purpose. It was determined whether the fluorescence of a 1 μM solution of F16 changed in response to mitochondrial energization and depolarization. […] Preincubation of mitochondria with the PTP inhibitor CsA only partially blunted this effect."}, "[4]": {"test_system": "β-catenin-initiated mouse breast tumor cell lines"}}, "note": "Values joined by “and” are separate entries in the source; they are usually repeats but may differ in a detail not shown here. Equal entries are not always repeated."}
{"compound": "C[n+]1ccc(/C=C/c2c[nH]c3ccccc23)cc1.[I-]", "note": "[F16]", "values": [{"measurement": "With F16 % G1", "setting": "SH1.1", "value": "81.3% and 79.7%"}, {"measurement": "With F16 % G2", "setting": "SH1.1", "value": "10.4% and 13.2%"}, {"measurement": "With F16 % S", "setting": "SH1.1", "value": 7.1, "unit": "%"}, {"measurement": "With F16 % G1", "setting": "AC816", "value": "96.8% and 95.1%"}, {"measurement": "With F16 % G2", "setting": "AC816", "value": "2.7% and 2.8%"}, {"measurement": "With F16 % S", "setting": "AC816", "value": "0.1% and 0.2%"}, {"measurement": "With F16 % G1", "setting": "[1]", "value": "82.7% and 83.8%"}, {"measurement": "With F16 % G2", "setting": "[1]", "value": 1.5, "unit": "%"}, {"measurement": "With F16 % S", "setting": "[1]", "value": "12.8% and 12.7%"}, {"measurement": "With F16 % G1", "setting": "n-Neu", "value": "64.5% and 61.5%"}, {"measurement": "With F16 % G2", "setting": "n-Neu", "value": "15.4% and 17.8%"}, {"measurement": "With F16 % S", "setting": "n-Neu", "value": "18.2% and 19.6%"}, {"measurement": "With F16 % G1", "setting": "NF980", "value": "68.6% and 69.6%"}, {"measurement": "With F16 % G2", "setting": "NF980", "value": "12.4% and 8.9%"}, {"measurement": "With F16 % S", "setting": "NF980", "value": "17.3% and 17.0%"}, {"measurement": "With F16 % G1", "setting": "NAF", "value": 86.8, "unit": "%"}, {"measurement": "With F16 % G2", "setting": "NAF", "value": 3.6, "unit": "%"}, {"measurement": "With F16 % S", "setting": "NAF", "value": 4.7, "unit": "%"}, {"measurement": "ATP pool", "setting": "EpH4-A6 cells", "value": "significant depletion in the ATP pool"}, {"measurement": "phosphotyrosine content of Neu, phosphorylated PKB/Akt, and phosphorylated MAP kinase", "setting": "[2]", "value": "decreased"}, {"measurement": "F16 response", "setting": "BT474", "value": "+"}, {"measurement": "mitochondrial depolarization", "setting": "[3]", "value": "directly causes mitochondrial depolarization"}, {"measurement": "selectivity for β-catenin-initiated mouse breast tumor cell lines", "setting": "[4]", "value": "to some extent selectivity"}]}
